Values joined by “and” are separate entries in the source; they are usually repeats but may differ in a detail not shown here. Identical values can stand only once.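 Five compound concentrations were applied to cells in 96-well plates for 48 hours; endpoints were derived by simple linear interpolation of the resulting dose-response curve. At the GI50, growth is halved. TGI denotes the concentration required for complete inhibition of growth.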
Legend:
Test in all cases: DTP human tumour cell line panel, 48 h
M14 melanoma = system: M14 melanoma
SR leukemia = system: SR leukemia
TK-10 renal = system: TK-10 renal
RXF 393 renal = system: RXF 393 renal
T-47D breast = system: T-47D breast
SK-MEL-28 melanoma = system: SK-MEL-28 melanoma
MCF7 breast = system: MCF7 breast
NCI-H460 lung = system: NCI-H460 lung
HS 578T breast = system: HS 578T breast
A498 renal = system: A498 renal

Compound	GI50 (M14 melanoma) [µM]	TGI (M14 melanoma)	GI50 (SR leukemia) [µM]	TGI (SR leukemia) [µM]	GI50 (TK-10 renal) [µM]	TGI (TK-10 renal) [µM]	GI50 (RXF 393 renal) [µM]	TGI (RXF 393 renal)	GI50 (T-47D breast) [µM]	TGI (T-47D breast)	GI50 (SK-MEL-28 melanoma) [µM]	TGI (SK-MEL-28 melanoma)	GI50 (MCF7 breast) [µM]	TGI (MCF7 breast) [µM]	GI50 (NCI-H460 lung) [µM]	TGI (NCI-H460 lung)	GI50 (HS 578T breast) [µM]	TGI (HS 578T breast)	GI50 (A498 renal) [µM]	TGI (A498 renal)
CCCCCCc1cc2cc(-c3nc4ccccc4[nH]3)c(=Nc3ccccc3C)oc2cc1O	1.85	3.6 µM	1.86	4.47	2.27	4.48	1.85	3.95 µM	2.12	5.25 µM	1.88	3.73 µM	2.24	> 23.8	2.12	4.77 µM	2.37	6.71 µM	4.02	16.8 µM
Cc1ccc2c(c1)c1nc3cc(C)c(C)cc3nc1n2CCN(C)C	1.78	3.92 µM	1.06	14.2	2.11	7.94	1.32	3.4 µM	3.34	17.7 µM	2.55	5.46 µM	2.91	9.7	2.69	9.25 µM	2.74	8.04 µM	1.77	3.34 µM
O=C(Nc1ccc(F)cc1)Nc1ccccc1CNc1nc(Nc2ccc(OCCN3CCCC3)cc2)ncc1Cl	0.946	2 µM	1.81	50	1.77	6.8	0.895	1.88 µM	1.48	4.28 µM	0.899	1.78 µM	1.37	4.75	1.15	2.7 µM	0.99	2.58 µM	1.42	8.21 µM
CCOC(=O)c1sc2ncn(Cc3cccc(Br)c3)c(=O)c2c1C	20.9	53.8 µM	8.18	88.7			29	> 100 µM	36.5	> 100 µM	71.6	> 100 µM	31.4	> 100	77.3	> 100 µM	38.6	> 100 µM	18.2	80.1 µM
O=[N+]([O-])c1ccccc1N=Nc1c(O)[nH]c2ccc(Br)cc12		44.7 µM		> 40.5		30.8		> 47.5 µM		> 78.7 µM		> 61.9 µM		59.9		25 µM		46.2 µM		> 45.8 µM
CCCCCc1nc2c(c3c1CCCC3)CCCC2	12.9	29.4 µM	15.7	45.1	8.44	22.4	13.1	27.3 µM	6.2	24.9 µM	14.8	36.2 µM	5.28	21.2	12	30.1 µM	14	69.3 µM	3.28	19.6 µM
Clc1ccc(/C=C/c2cc(N3CCOCC3)c3cc(Cl)c(Cl)cc3n2)cc1	> 100	> 100 µM	14.9	> 61.8	> 100	> 100	> 100	> 100 µM	> 100	> 100 µM	> 100	> 100 µM	> 100	> 100	> 100	> 100 µM	> 100	> 100 µM	> 100	> 100 µM
CC(C)c1c(C(=O)Nc2ccccc2)c(-c2ccccc2)c(-c2ccc(F)cc2)n1CC[C@@H]1CC=CC(=O)O1	1	2.48 µM	2.66	9.49	2.18	4.67	1.62	3.13 µM	2.58	7.65 µM	1.69	3.14 µM	1.78	4.01	2.05	4.21 µM	2.14	6.05 µM	4.92	19.1 µM
Oc1ccc(CN2CCC(N3CCOCC3)CC2)c2cccnc12	26.9	> 100 µM	34	> 100	62.4	> 100	23	95.5 µM	35.5	> 100 µM	37.6	> 100 µM	22.7	76.8	46.9	> 100 µM	62.1	> 100 µM	> 100	> 100 µM
N/C(=C\C(=O)n1nc(-c2ccccc2)cc1N)c1ccccc1	3.13	14.7 µM	1.59	7.38	7.72	> 100	13.3	44.8 µM	3.27	26.3 µM	5.84	32.3 µM	2.86	21.1	3.55	15.8 µM	2.41	13 µM	2.77	12.5 µM
Cn1ccnc1C(=O)/C=C/c1ccc(C(=O)Nc2ccc(S(F)(F)(F)(F)F)cc2)cc1	9.17	> 14.3 µM	0.391	10.3	4	> 14.3	2.65	13.9 µM	0.923	> 14.3 µM	> 14.3	> 14.3 µM	0.481	> 14.3	0.534	2.57 µM	3.4	> 14.3 µM		
S=C(N/N=C(/c1ccccc1)c1ccccn1)N1CCCCC1		1.66 µM and 0.543 µM	< 0.001	< 0.001		1.97	0.0129	1.43 µM and 3.38 µM	< 0.001	1.01 µM and 2.9 µM	1.08	2.55 µM and 2.82 µM		4.12	0.00149	2.31 µM and 1.52 µM	1.3	6.74 µM and 5.88 µM	0.0815	1.43 µM and 2.37 µM
Cn1cc(C2=C(c3cccc(N)c3)C(=O)NC2=O)c2ccccc21	> 25	> 25 µM	9.03	24.8	> 25	> 25	3.63	> 17.7 µM	14.3	> 25 µM	> 25	> 25 µM	4.19	> 25	13.6	> 25 µM	1.34	> 25 µM	1.13	> 6.7 µM
Cc1cc(NCCCNc2ccnc3cc(Cl)ccc23)nc(N2CCN(C)CC2)n1	1.94	3.61 µM	1.81	6.41	6.51	29.9	1.35	4.99 µM	6.7	30.9 µM	1.84	3.67 µM	2.77	28.4	2.66	10.4 µM	12.4	36.9 µM	14.4	28.3 µM
O=C1C2C(C(=O)[N]1[Hg][c]1cccs1)C1(Cl)C(Cl)=C(Cl)C2(Cl)C1(Cl)Cl (centres undefined)	1.14	2.68 µM	0.146		1.65	3.04	1.5	3 µM	0.57	2.94 µM	1.24	2.7 µM	0.386	1.94	3.04	10.1 µM	2.41	11.5 µM	2.29	6.05 µM
CC/C(=C(/c1ccc(OCCN(C)C)cc1)c1ccc(OC(=O)CCC(=O)c2c(C)[nH]c(/C=C3\N=C(c4ccc[nH]4)C=C3OC)c2C)cc1)c1ccccc1	2.06	4.92 µM	0.694	5.38	4.87	15.7	2.34	12.6 µM	1.34	7.79 µM	2.89	12.4 µM	< 0.0217	2.66	3.48	14.1 µM	1.15	4.72 µM	2.54	16.8 µM
COc1cc(-c2nc3sccn3c2-c2ccnc(NCCNS(=O)(=O)c3ccc(Cl)cc3)n2)ccc1F	3.62	> 100 µM	3.94	> 100	9.44	> 100	1.64	> 100 µM	1.44	8.46 µM	4.37	> 100 µM	3.24	> 100	5.16	> 100 µM	8.05	> 100 µM		
COC(=O)C1=C(C)NC(C)=C(C(=O)OC)C1/C=C(\Cl)c1ccc(Cl)c(Cl)c1	16.6	30.2 µM	3.3	22.4	14.8	30.3	13.4	27.2 µM	20.2	50.1 µM	13.2	27.7 µM	11.4	33.5	6.48	23.4 µM	12.2	33.4 µM	11.4	24.1 µM
O=c1c2c3c(sc2n2c(-c4cc(-c5ccccc5)no4)nnc2n1Cc1ccccc1)CCCC3	27.2	> 100 µM	4.94	> 42	21.5	> 82.8	4.13	26.7 µM	3.55	22.1 µM	22.9	76 µM	16.3	> 76.3	12.6	36.8 µM	18.7	> 94.7 µM	36.5	> 100 µM
CN(Cc1ccc(Cl)cc1)c1ccc(CO)c(Cl)c1	8.33	22.3 µM	13.1	54.8	0.268	1.68	3.57	16.8 µM	0.764	5.4 µM	12.3	25.1 µM	1.34	12.5	1.35	11.1 µM	12.5	39.8 µM	0.0464	0.179 µM
CCOC(=O)/C(=N\OC)C(O)C(F)(F)F (centres undefined)		> 100 µM		> 100		> 100		> 100 µM		> 100 µM		> 100 µM		> 100				> 100 µM		> 100 µM
N=C(N)c1ccc(OCCOCCOc2ccc(C(=N)N)cc2)cc1	> 100	> 100 µM	31.7	> 100	39.2	> 100	> 100	> 100 µM	82.5	> 100 µM	77	> 100 µM	89.1	> 100	44.2	> 100 µM	67.3	> 100 µM	63.7	> 100 µM
COc1ccc(-n2cc(-c3cc(OC)c(OC)c(OC)c3)nc2SCc2ccccc2)cc1	> 100	> 100 µM	54	> 100	> 100	> 100			7.89	> 100 µM	76.6	> 100 µM	15.4	> 100	52.6	> 100 µM	> 100	> 100 µM	> 100	> 100 µM
COc1ccc2c(c1)=C(C=C1C=CN(O)C=C1)C(=O)N=2	24.6	65.9 µM	18.2	> 100	36.3	> 90.5	33.9	98.3 µM	6.34	> 68.7 µM	27	> 100 µM	20.9	> 100	> 50.1	> 88.3 µM	32.1	> 86.3 µM	19.7	> 73.2 µM
CC(C)(O)C#Cc1ccc(/C=C/C(=O)c2ccccc2)s1			3.85	13.8	19.4	35.8	14.7	28.7 µM	14.5	67.9 µM	16	30.2 µM	3.63	16.7	17.3	33.5 µM	25.5	79.7 µM	17.7	32.2 µM
Nc1nc(N)c(Cn2ccnc2)c(=O)[nH]1		> 100 µM		> 100		> 100		> 100 µM		> 100 µM				> 100		> 100 µM		> 100 µM		> 100 µM

Reference: PubChem BioAssay (NCI)
